Article PMC10827958, “Identification of a novel thermostable transaminase and its application in L-phosphinothricin biosynthesis” (Applied Microbiology and Biotechnology, 2024)

Tested on: T1, PtTA
T1 construct: PLP enzyme
Assay: initial rates, chiral HPLC of L-PPT, Michaelis-Menten fit
Assay type: biochemical, Zestomonas thermotolerans
Details: PPO 1-100 mM; co-substrate L-amino acid 100 mM (L-Glu presumably); 0.1 mM PLP; 50 mM phosphate pH 8.0; 55 °C

SMILES: CP(=O)(O)CCC(=O)C(=O)O [PPO, 4-(hydroxy(methyl)phosphoryl)-2-oxobutanoic acid]
- Km: 35.9 mM
